Where a name gives a salt, the structure may show the parent alone. Read-outs that look alike come from different tables or passages of the source.
How the values were obtained:
[1] = Solubility / saturation concentration of TMT-Na salts and salt mixtures in water; format: physicochemical; conditions: for solubility in water: temperature not given; for Solubility of the TMT-Na salt/-salt mixture / solubility: water; for solubility: read-out: saturation concentration of TMT-Na3 in water
Source text: That is, in each case, more than 2 hydrogen atoms of the TMT-H3 are replaced.

[2] = Titration curve of TMT-H3; format: physicochemical
Source text: In the sequence named, the jump are to be associated with the salts TMT-Na, TMT-Na2 and TMT-Na3.

[3] = Stability in storage of aqueous solutions (crystallization); format: physicochemical; conditions: in words
Description: Aqueous solutions of TMT-Na3 are commercially available and are used for separating heavy metal from the flue gas wash water of garbage incinerators, waste water in the mining industry and in galvanotechnical and chemical plants. The commercially available, aqueous TMT-NA3 solution has a concentration of 15% by weight (Publication TMT 15 of the Degussa company, 3/1986). The saturation concentration of TMT-Na3 in water is approximately 16% by weight at 0° C. and approximately 25% by weight at 20° C. […] Such a crystallization makes it considerably more difficult to handle the product. If heat-insulated or heated transport and storage containers were used, TMT-Na3 solutions with a higher concentration could be considered as a commercially supplied form of this product; however, this would make the product and its use more expensive.
The object of the present invention is to provide aqueous solutions of sodium salts of trimercapto-s-triazine which have a higher concentration of active substance than current commercially available solutions. Increasing the concentration makes possible a reduction in transportation and storage costs. The solutions should be stable in storage, that is, no crystallization of the active substance or of its salt should occur during storage. […]

[4] = Solubility / saturation concentration of TMT-Na salts and salt mixtures in water; format: physicochemical
[5] = disclosure of DE-AS 22 40 549; cited from earlier work

In the case of Sc1nc(S)nc(S)n1 [TMT-Na2, disodium salt of trimercapto-s-triazine], the “solubility in water (in words)” value ([1]; in words) is reported as “unusually high water solubility” and the “solubility relative to that of TMT-Na3” value ([1]; in words, comparison with TMT-Na3) is reported as “considerably above that of the readily soluble TMT-Na3”.
With Sc1nc(S)nc(S)n1 [TMT-H3, Trimercapto-s-triazine] the “solubility in water (in words)” value ([1]; in words) was “practically insoluble in water”, the solubility in water [1] was “less than 0.5 % by weight” and the “first jump of the titration curve” value ([2]; associated with TMT-Na) was “around 7 pH”. For the same compound, the “second jump of the titration curve” value ([2]; associated with TMT-Na2) was “around 10.5 pH” and the “third jump of the titration curve” value ([2]; associated with TMT-Na3) was “around 12.5 pH”.
For Sc1nc(S)nc(S)n1.[Na].[Na].[Na] [TMT-Na3, trimercapto-s-triazine trisodium salt], the “solubility of TMT-Na3” value ([1]; 0° C.) was “approximately 0.78 mole TMT-Na3 per liter of H2 0”, the “Solubility of the TMT-Na salt/-salt mixture” value ([1]; 0° C.) was 0.78 mole TMT salt/1 H2 O and the “solubility of TMT-Na3” value ([1]; 20° C.) was “approximately 1.37 mole TMT-Na3 per liter of H2 0”. For the same compound, the “Solubility of the TMT-Na salt/-salt mixture” value ([1]; 20° C.) was 1.37 mole TMT salt/1 H2 O, the “solubility in water (in words)” value ([1]; in words) was “good solubility” and the solubility ([1]; 0° C.) was roughly 160 mg/mL. For the same compound, the solubility ([1]; 20° C.) was roughly 250 mg/mL and the “stability in storage (crystallization)” value [3] was “crystallizes if the concentration is higher”.
In the case of Sc1nc(S)nc(S)n1 [TMT-Na2.6 H2 0, hexahydrate of trimercapto-s-triazine disodium salt], the “solubility in water (in words)” value ([4]; in words, disodium salt) is reported as “extraordinarily high solubility in water”.
With Sc1nc(S)nc(S)n1 [TMT-Na, monosodium salt of trimercapto-s-triazine] the “solubility in water (in words)” value ([1]; in words) was “slightly soluble in water”, the solubility in water [1] was “approximately 3 % by weight” and the precipitation from solution ([4]; less than 2 hydrogen atoms of trimercapto-s-triazine replaced by Na ions) was “precipitates”. The solubility in water [5] was “approximately 3 % by weight”.

— patent US5258515A, “Aqueous solutions of sodium salts of trimercapto-s-triazine, their preparation and use” (Degussa Aktiengesellschaft, priority 1989, dated 1993)
